Measured values from patent publication US20210386752A1, “Uses of Electron Transport Chain Complex I or Complex II Inhibitors in Treating Cancer, Combination Therapies, and Diagnostic Methods Related Thereto” (Emory University, priority 2020, published 2021).

How the values were obtained:
[1] = system: venetoclax-resistant MM lines; assay: Venetoclax sensitization of resistant MM lines by ETC inhibitor cotreatment, viability by AnnexinV/DAPI staining; assay type: cell-based
Protocol: Cell viability assessed by AnnexinV/DAPI staining.
Given the unique role of Complex II in directly connecting the TCA cycle to the ETC, the impact of selectively inhibiting either the SDH or SQR activities of Complex II on venetoclax sensitivity was tested. The venetoclax sensitization effects of TTFA (SQR inhibitor) or 3NPA (SDH inhibitor) were tested on eight venetoclax-resistant MM lines (FIG. 3A-3H). 3NPA is a structural analog of succinate, which binds irreversibly with SDH inhibiting FAD reduction and fumarate production while TTFA is a direct Qp site inhibitor. […] The efficacy of the TTFA-venetoclax cotreatment strategy was also tested in a colony-forming unit assay. MM lines (L363 and KMS11) were cultured in an agar matrix with single agents or the combination.
To further inquire whether Complex I inhibition could also sensitize MM cells to venetoclax, a Complex I inhibitor was tested ([…]).

[2] = target: T1, succinate ubiquinone reductase (SQR) activity of Complex II (Homo sapiens, UniProt O14521+Q99643); assay: SQR activity assay in permeabilized cells; assay type: biochemical; conditions: TTFA-treated KMS11 cells, 24 h
T1 construct: endogenous in cells; host or cells: KMS11 multiple myeloma cells, permeabilized
T1 sequence (Q99643 30-169): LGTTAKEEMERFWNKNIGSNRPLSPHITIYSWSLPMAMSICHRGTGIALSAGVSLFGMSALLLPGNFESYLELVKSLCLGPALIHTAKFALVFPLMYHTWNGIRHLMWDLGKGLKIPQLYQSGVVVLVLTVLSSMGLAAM
T1 sequence (O14521 57-159): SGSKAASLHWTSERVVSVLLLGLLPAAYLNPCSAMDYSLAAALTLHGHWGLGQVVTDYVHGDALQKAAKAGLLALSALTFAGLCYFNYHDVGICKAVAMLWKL
T1 sequence (P31040 43-664 partner): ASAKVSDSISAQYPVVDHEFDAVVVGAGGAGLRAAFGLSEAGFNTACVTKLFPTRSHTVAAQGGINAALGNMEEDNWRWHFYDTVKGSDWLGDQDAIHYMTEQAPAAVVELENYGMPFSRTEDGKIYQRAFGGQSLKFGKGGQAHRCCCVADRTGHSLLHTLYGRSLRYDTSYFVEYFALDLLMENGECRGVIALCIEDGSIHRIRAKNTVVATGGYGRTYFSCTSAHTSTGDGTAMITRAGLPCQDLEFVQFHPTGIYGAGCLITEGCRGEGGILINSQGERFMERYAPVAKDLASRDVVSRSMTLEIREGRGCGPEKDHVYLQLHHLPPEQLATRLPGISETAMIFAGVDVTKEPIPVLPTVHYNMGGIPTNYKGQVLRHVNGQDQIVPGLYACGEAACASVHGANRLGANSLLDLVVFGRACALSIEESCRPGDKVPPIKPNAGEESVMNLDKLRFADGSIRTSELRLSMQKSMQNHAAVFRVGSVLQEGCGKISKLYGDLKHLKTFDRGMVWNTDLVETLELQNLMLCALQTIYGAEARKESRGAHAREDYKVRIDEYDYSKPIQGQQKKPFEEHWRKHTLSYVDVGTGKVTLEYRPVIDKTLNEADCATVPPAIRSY
T1 sequence (P21912 29-280 partner): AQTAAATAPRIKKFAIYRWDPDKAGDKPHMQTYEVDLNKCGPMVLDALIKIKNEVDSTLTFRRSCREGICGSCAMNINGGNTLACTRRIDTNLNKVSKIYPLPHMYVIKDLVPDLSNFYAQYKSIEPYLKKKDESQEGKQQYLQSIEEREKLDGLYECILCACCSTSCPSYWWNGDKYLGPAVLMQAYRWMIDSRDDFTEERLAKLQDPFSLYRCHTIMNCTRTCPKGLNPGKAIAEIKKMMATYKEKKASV
Text: Given reduced oxygen consumption rates (OCR) in sensitive cells, the activities of mitochondrial Complex I and II were examined. Mitochondrial Complex I and II receive electrons from the electron donors NADH or FADH2 respectively, that are transferred to the terminal electron acceptor (O2) via a series of redox reactions. Complex I or NADH:Coenzyme Q:oxidoreductase is the largest multimeric respiratory complex of ETC comprised of over 40 subunits with its catalytic subunit containing the NADH binding site. Electrons from NADH are transferred to FMN and then to FeS clusters and finally to ubiquinone where ubiquinone is reduced to ubiquinol. […] Complex I activity was measured using an assay that relies on immunocapture of Complex I from freshly prepared cellular protein extracts. The NADH dehydrogenase activity of immunocaptured Complex I was determined by the oxidation of NADH and simultaneous reduction of the provided dye resulting in increase in absorbance. SDH and SQR activities were measured in live permeabilized cells, containing intact mitochondria pretreated with inhibitors of Complex I (rotenone), Complex III (antimycin) and Complex IV (sodium azide), allowing for selective measurement of SQR or SDH activity. […]
Succinate ubiquinone reductase (SQR) and succinate dehydrogenase (SDH) activity assays were performed by absorbance-based assays using different electron acceptors. […]

citrate synthase = target: T2, citrate synthase (Homo sapiens, UniProt O75390); assay: Citrate synthase (CS) activity assay; assay type: biochemical; conditions: TTFA-treated KMS11 cells
T2 construct: Citrate synthase activity assay was measured in 0.3×10^6 cells harvested per sample and washed with PBS; endogenous in cells; host or cells: KMS11 multiple myeloma cells
T2 sequence (O75390 28-466): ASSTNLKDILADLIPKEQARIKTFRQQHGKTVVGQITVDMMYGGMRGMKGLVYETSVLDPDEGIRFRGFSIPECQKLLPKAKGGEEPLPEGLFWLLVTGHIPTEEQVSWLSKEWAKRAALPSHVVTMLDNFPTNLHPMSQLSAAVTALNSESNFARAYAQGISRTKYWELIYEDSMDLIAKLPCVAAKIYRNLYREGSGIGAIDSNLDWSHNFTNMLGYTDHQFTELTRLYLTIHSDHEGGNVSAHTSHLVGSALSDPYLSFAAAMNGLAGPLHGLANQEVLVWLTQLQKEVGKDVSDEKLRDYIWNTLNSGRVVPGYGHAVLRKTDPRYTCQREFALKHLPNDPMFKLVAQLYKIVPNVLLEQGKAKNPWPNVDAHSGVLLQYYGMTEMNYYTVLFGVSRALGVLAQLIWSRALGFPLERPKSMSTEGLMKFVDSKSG
Protocol: Citrate synthase activity assay was measured in 0.3×10^6 cells harvested per sample and washed with PBS. Cells were resuspended in 10 mM Tris (pH 8.5) and 0.1% Triton X-100 assay buffer, containing 300 μM acetyl CoA and 100 μM 5,5′-dithiobis(2-nitrobenzoic acid) (DTNB=molar extinction coefficient 13.6 mM^−1 cm^−1). Reaction was started by the addition of 0.5 mM oxaloacetic acid and change in absorbance recorded at 412 nm wavelength every min for 10 min. SQR, SDH and CS activity measurements were performed with 100 μL sample containing 0.3×10^6 permeabilized cells.

ATF4, NOXA = assay: Immunoblot of whole cell lysates for ATF4 and NOXA; assay type: cell-based; conditions: 100 μM TTFA, 24 h, MM cells
[3] = system: CD38+ CD45− gated MM cells from myeloma patient bone marrow aspirates; assay: Ex vivo venetoclax sensitivity of myeloma patient samples, Annexin V staining; assay type: cell-based, human
Protocol: CD38-PE and CD45-APC-Cy7 were used to gate myeloma cells. n=50 biological independent samples.
Bone marrow aspirate samples from 50 MM patients were treated with three doses of venetoclax (0.01, 0.1 and 0.5 μM) or TTFA (100 μM), or the combination for 24 h and cell death was assessed by AnnexinV staining. […] A venetoclax ICso <0.1 μM is characterized as a sensitive sample.
Bone marrow aspirates or peripheral blood samples from consenting myeloma patients were diluted to 25 mL with PBS and over laid on lymphocyte separation media. Following centrifugation, the collected buffy coat was washed with PBS and resuspended in culture medium. Cells subject to various treatments were stained with anti-CD38-phyocerythrin and anti-CD45-allophycocyanin-Cy7 to identify MM cells. CD138+ cells were purified using MACS CD138+ human microbeads. IC50S of venetoclax alone or in combination with TTFA/IACS-010759 in myeloma samples were calculated using nonlinear regression (curve-fit) analysis under agonist vs. normalized response with variable slope.

[4] = system: non-MM cells contained within the aspirate
Protocol: Bone marrow aspirate samples from 50 MM patients were treated with three doses of venetoclax (0.01, 0.1 and 0.5 μM) or TTFA (100 μM), or the combination for 24 h and cell death was assessed by AnnexinV staining.
The efficacy of IACS-010759 in sensitizing was tested in […] patient samples to venetoclax.

SMILES: O=C(CC(=O)C(F)(F)F)c1cccs1 [TTFA, 4,4,4-trifluoro-1-(2-thienyl)-1,3-butanedione]
- sensitization to venetoclax ([1]; KMS21BM, TTFA at 100 μM): does not sensitize these cells to venetoclax
- sensitization to venetoclax ([1]; L363, TTFA 100 μM, 24 h): sensitizes myeloma cell line L363 to venetoclax more effectively than inhibition of SDHA with 3-NPA
- sensitivity to venetoclax on cotreatment ([1]; eight venetoclax-resistant MM lines, 24 h): increased sensitivity to venetoclax in six of the eight lines tested
- SQR activity [2]: Significant reduction in SQR activity
- CS activity (citrate synthase): remained unaffected
- protein expression of ATF4, NOXA (ATF4, NOXA): Increased expression of ATF4, NOXA
- cell death with combination ([3]; 100 μM TTFA plus 0.1 μM venetoclax, 24 h, 50 patient samples): significantly more cell death
- samples sensitized (venetoclax IC50 <0.1 μM) ([3]; 100 μM TTFA, 15 of 50 samples): 30%
- samples with more than a 50% decrease in venetoclax IC50 ([3]; 100 μM TTFA, 31 of 50 samples): 62%
- samples with increased venetoclax sensitivity (IC50 Ven+TTFA vs Ven) ([3]; 100 μM TTFA, 46 of 50 samples): 92%
- samples with greater than 50% reduction in venetoclax IC50 ([3]; of ten ex vivo resistant samples, TTFA treatment): seven samples
- reduction in venetoclax IC50 ([3]; t(11;14) patient relapsed on venetoclax, TTFA treatment): more than tenfold reduction
- increased sensitivity to venetoclax ([3]; ten ex vivo resistant samples with high SQR activity, TTFA treatment): all ten resistant samples showed increased sensitivity
- viability of non-MM cells [4]: no to minimal impact on viability
